From patent publication US6630572B1, “Thrombin derived polypeptides: compositions and methods for use” (The Board of Regents, University of Texas Syatems, priority 1986, dated 2003)
Ends that are not written are not given here.

How the values were obtained:
[1] = system: high-affinity thrombin receptor; test: Competition for specific [125I]-alpha-thrombin binding to ME cells; parameters: species or system mouse; conditions: for fold higher concentration than p508-530 required for 30% inhibition of [125I]-alpha-thrombin binding: ME cells; for Conc. at Maximal % Inhibition / Concentration Required for 30% Inhibition / Maximal % Inhibition: [125I]-alpha-thrombin (1 nM), quiescent ME cells; for Concentration Required for 30% Inhibition / Maximal % Inhibition: 23° C.; for Maximal % Inhibition: at the conc. printed below the value
Procedure: Specific techniques whereby the competitive binding studies were performed are set out below. Human alpha-thrombin was iodinated in the presence of benzamidine (an active-site competitive inhibitor), lactoperoxidase, and Na[^125I]. […] These iodinated preparations retained approximately 80% of their fibrinogen clotting activity. The ability of the synthetic peptides to compete for specific [^125I]-alpha-thrombin binding to fibroblasts was measured on nonproliferating, mitogenically responsive cultures in 24 well plates (Falcon) at a cell density of approximately 5×10^4 cells/cm^2 as previously described (Carney and Cunningham, Cell, 15:1341-1349 (1978)). The medium on the cells was changed to binding medium (serum-free DV medium containing 0.5% (w/v) bovine serum albumin buffered with 15 mM HEPES at pH 7.0). The cells were equilibrated at 23° C. for 30 minutes, and the medium was changed to binding medium containing [^125I]-alpha-thrombin (10 ng/ml) with the indicated concentrations of the peptides. After 2 hours at 23° C., the assay was terminated by quickly rinsing the cells four times with ice-cold PBS. The cells were dissolved in 1 ml of 0.5 N NaOH and the total radioactivity was measured using a Beckman gamma counter. Nonspecific binding was measured as the radioactivity bound to cultures after incubation in binding medium containing a 100-fold excess of unlabeled alpha-thrombin. Specific binding was calculated by subtracting nonspecific binding from total radioactivity bound to cultures. […] Scatchard analysis of the direct binding of [^125I]-labeled p508-530 indicated a KD of approximately 6×10^−8 M (data not shown). […] Various concentrations of peptides and [^125I]-alpha-thrombin (1 nM) were incubated with quiescent ME cells for […] at 23° C. Specific binding of [^125I]-alpha-thrombin was defined as described in Example 3.

ME cells = test: [3H]-thymidine incorporation (DNA synthesis) in quiescent ME cells; format: cell-based, mouse; conditions: for inhibition of alpha-thrombin stimulated DNA synthesis: 625 nM peptide, FIG. 7
Procedure: Primary cultures of fibroblasts were prepared from 9- to 13-day old embryos of NIH-swiss outbred mice as described by Carney and Cunningham, Cell, 15:1341-1349, (1978). NIL cells, an established strain of hamster fibroblasts, were maintained as stock cultures and subcultured every four days. All cells were grown in Dulbecco-Vogt modified Eagle's (DV) medium supplemented with 10% (v/v) bovine calf serum (CS), in a humidified atmosphere of 5% CO2 in air at 37° C. Quiescent cultures were prepared by subculturing stock cells from 100 mm dishes, using 0.05% (w/v) trypsin and 0.02% EDTA (w/v) in phosphate-buffered saline (PBS) and plating them in 24-well culture plates in DV medium supplemented with 10% (v/v) CS at 6×10^4 cells/cm^2. After allowing the cells to attach overnight, the medium was removed and the cells were rinsed with DV medium containing no serum. The cells were incubated in this serum-free medium for 48 hours before the indicated experiments. […] The effects of the synthetic peptides on DNA synthesis were determined by measuring the incorporation of methyl-[^3H]-thymidine (TdR, ICN Pharmaceuticals, Irvine, Calif.) during a 2 hour incubation generally from 22 hours after addition of peptides and/or thrombin (Stiernberg et al., J. Cell Physiol., 120:209-285 (1984)). After incubation, the cells were extracted and rinsed with ice-cold 10% (w/v) trichloroacetic acid (TCA). The acid precipitable material was dissolved overnight in 0.5 ml 0.5 N KOH at 23° C. HCl (1 N), 0.25 ml, was added and the solution was counted in 10 ml of RediSolv-HPb (Beckman Instruments, Houston, Tex.) scintillation fluid. The present inventors first tested the ability of p508-530 to stimulate DNA synthesis in non-proliferating cultures of ME or NIL cells. […] In order to explain the mechanism by which p517-520 was able to inhibit thrombin-mediated mitogenesis, the inventors measured the ability of increasing concentrations of alpha-thrombin to stimulate DNA synthesis in cultures to which a constant concentration (625 nM) of p517-520 had been added (FIG. 7). […]

NIL cells = test: [3H]-thymidine incorporation (DNA synthesis) in quiescent NIL cells; format: cell-based, hamster; conditions: for effect on alpha-thrombin stimulated DNA synthesis: quiescent NIL cells, increasing peptide concentrations, 2 and 4 nM alpha-thrombin, FIG. 6
Procedure: Primary cultures of fibroblasts were prepared from 9- to 13-day old embryos of NIH-swiss outbred mice as described by Carney and Cunningham, Cell, 15:1341-1349, (1978). NIL cells, an established strain of hamster fibroblasts, were maintained as stock cultures and subcultured every four days. All cells were grown in Dulbecco-Vogt modified Eagle's (DV) medium supplemented with 10% (v/v) bovine calf serum (CS), in a humidified atmosphere of 5% CO2 in air at 37° C. Quiescent cultures were prepared by subculturing stock cells from 100 mm dishes, using 0.05% (w/v) trypsin and 0.02% EDTA (w/v) in phosphate-buffered saline (PBS) and plating them in 24-well culture plates in DV medium supplemented with 10% (v/v) CS at 6×10^4 cells/cm^2. After allowing the cells to attach overnight, the medium was removed and the cells were rinsed with DV medium containing no serum. The cells were incubated in this serum-free medium for 48 hours before the indicated experiments. […] The effects of the synthetic peptides on DNA synthesis were determined by measuring the incorporation of methyl-[^3H]-thymidine (TdR, ICN Pharmaceuticals, Irvine, Calif.) during a 2 hour incubation generally from 22 hours after addition of peptides and/or thrombin (Stiernberg et al., J. Cell Physiol., 120:209-285 (1984)). After incubation, the cells were extracted and rinsed with ice-cold 10% (w/v) trichloroacetic acid (TCA). The acid precipitable material was dissolved overnight in 0.5 ml 0.5 N KOH at 23° C. HCl (1 N), 0.25 ml, was added and the solution was counted in 10 ml of RediSolv-HPb (Beckman Instruments, Houston, Tex.) scintillation fluid. The present inventors first tested the ability of p508-530 to stimulate DNA synthesis in non-proliferating cultures of ME or NIL cells. […] However, in combination with 2 nM alpha-thrombin, 0.1 uM p508-530 stimulated a 6- or greater than 2-fold increase in incorporation of [^3H]-thymidine into DNA in ME cells when compared to parallel cultures left untreated or treated with alpha-thrombin alone, respectively (FIG. 4A). A similar mitogenic stimulation was also observed in NIL hamster cells, although it required a slightly higher concentration of thrombin and peptides (FIG. 4B). […] With NIL cells, a similar correlation was observed between the mitogenic concentrations of p508-530 and the concentrations required to inhibit thrombin binding, although at higher levels than required with ME cells. […] It was predicted, therefore, that if p508-530 was generating a receptor occupancy-related signal, its addition to cells in combination with PMA should stimulate mitogenesis. […] This stimulation occurred at approximately the same concentration of peptide as that required to stimulate DNA synthesis in the presence of low concentrations of alpha-thrombin. […]

fibroblast = conditions: compared with fibronectin-specific peptides; cited from earlier work

Substance	mitogenesis (summary statement) (NIL cells)	effect on alpha-thrombin stimulated DNA synthesis (NIL cells)	promotion of fibroblast attachment (fibroblast)	fold higher concentration than p508-530 required for 30% inhibition of [125I]-alpha-thrombin binding [1] [fold]	Conc. at Maximal % Inhibition [1]	Concentration Required for 30% Inhibition [1] [nM]	Maximal % Inhibition [1] [%]	other results
Arg-Gly-Ala-Ser (RGAS; printed: Arg-Gly-Ala-Ser) [reference compound]	–	–	–	–	–	–	–	competition with [125I]-alpha-thrombin for binding ([1]; concentration of 1.3 uM): did not compete
Arg-Gly-Asp-Ala (RGDA; Fragment of human prothrombin) [p517-520]	without inducing mitogenesis	inhibited DNA synthesis	comparable to that induced by fibronectin-specific peptides	50	(2.7 uM)	300	50	molar excess of peptide required for inhibition of alpha-thrombin stimulation (ME cells): 500-1000 fold; inhibition of alpha-thrombin stimulated DNA synthesis (ME cells; 0.8 nM alpha-thrombin): approximately 75%; inhibition of alpha-thrombin stimulated DNA synthesis (ME cells; 13.0 nM alpha-thrombin): ~35%
DACEGDSGGPFV [p519-530, peptide representing residues 519 to 530 of the B-chain region of human prothrombin]	retains the ability to mediate mitogenesis but to a much lesser degree than p508-530	enhanced DNA synthesis	–	33	(800 Nm)	200	51	–
p510-526: peptide representing 510-526 of human prothrombin (TKPDEGKRGDACEGDSG; Fragment of human prothrombin)	–	–	comparable to that induced by fibronectin-specific peptides	–	–	–	–	–
p516-522: peptide representing 516-522 of human prothrombin (KRGDACE; Fragment of human prothrombin)	–	–	comparable to that induced by fibronectin-specific peptides	–	–	–	–	–
